Counter-ions that a name gives are not always drawn. Values belong to the molecule of their own block, whether it stands above or below them.
Tests used:
[1] = system: Non-fasted anaesthetised pigs; test: In vivo testing of combination treatment: GLP-1 infusion and iv glucose load under DPP IV inhibition, with and without NEP 24.11 inhibition; set-up: species or system pig
Method: Non-fasted anaesthetised pigs (n=5) were given valine-pyrrolidide (250 μmol/kg; V) to inhibit DPP IV activity throughout the experiment. An intraveneous (iv) infusion of GLP-1 (0.75 pmol/kg/min) was started, during which an iv glucose load (0.2 g/kg over 9 min) was given. 90 min after the end of the first GLP-1 infusion, candoxatril was administered iv (5 mg/kg; C), and the protocol (GLP-1 and glucose infusion) was repeated. In addition, during both GLP-1 infusions, simultaneous blood samples were taken from the carotid artery, the renal, femoral, hepatic and portal veins for determination of arterio-venous GLP-1 concentration differences. Samples were analysed for blood glucose, insulin, glucagon and GLP-1 concentrations.

[2] = anaesthetised pigs, iv GLP-1 infusion

melting point: 104 to 117 °C
Structure (SMILES): Cn1c(=O)c2c(nc(N3CC[C@H](N)C3)n2Cc2ccccc2C#N)n(C)c1=O (as salt: HCl) [Example 8, (S) 2-(8-(3-Aminopyrrolidin-1-yl)-1,3-dimethyl-2,6-dioxo-1,2,3,6-tetrahydropurin-7-ylmethyl)benzonitrile]

melting point: 166 to 169 °C
Structure (SMILES): Cn1c(=O)c2c(nc(N3CC[C@H](N)C3)n2Cc2ccccc2)n(C)c1=O (as salt: HCl) [Example 3, (S) 8-(3-Aminopyrrolidin-1-yl)-7-benzyl-1,3-dimethyl-3,7-dihydropurine-2,6-dione]

Structure (SMILES): CC(C)[C@H](N)C(=O)N1CCCC1 [VP, valine-pyrrolidide]
plasma levels of GLP-1 (plateau level) ([1]; anaesthetised pigs n=5, iv GLP-1 infusion 0.75 pmol/kg/min, valine-pyrrolidide 250 μmol/kg, candoxatril 5 mg/kg iv, FIG. 1): 73 ± 13 pmol/L
glucagon concentrations ([1]; anaesthetised pigs, 20 min period following C administration, before start of the GLP-1 infusion, FIG. 4): 9 ± 2 pmol/L
insulin secretion (AUC27-67 min) ([1]; anaesthetised pigs, GLP-1 and glucose infusion, FIG. 3): 3606 ± 668 pmol·min/L
renal clearance (organ extraction) of GLP-1 ([1]; anaesthetised pigs, calculated from arterio-venous GLP-1 concentration differences): 58.7±4.3%
metabolic clearance rate of GLP-1 [1, 2]: 25.1 ± 3.9 mL/min/kg
plasma t½ of GLP-1 [1, 2]: 2.5 ± 0.2 min
glucose excursion (ΔAUC2-77 min) ([1]; anaesthetised pigs, iv glucose load 0.2 g/kg over 9 min during GLP-1 infusion, FIG. 2): 59 ± 4 mmol·min/L
glucose elimination rate ([1]; anaesthetised pigs, iv glucose load during GLP-1 infusion): 6.6±0.5 %/min

melting point: 215 to 217 °C
Structure (SMILES): Cn1c(=O)c2c(nc(N3CC[C@H](N)C3)n2Cc2ccccc2Br)n(C)c1=O (as salt: HCl) [Example 12, (S) 8-(3-Aminopyrrolidin-1-yl)-7-(2-bromobenzyl)-1,3-dimethyl-3,7-dihydropurine-2,6-dione]

Source: patent publication US20070197552A1, “Method and composition for treatment of diabetes, hypertension, chronic heart failure and fluid retentive states” (Novo Nordisk A/S, priority 2002, published 2007)
